Active and inactive are the calls of the source.
How the values were obtained:
[1] = molecular target: Dual specificity protein phosphatase 3 (Homo sapiens, UniProt P51452); assay: VHR phosphatase inhibition, dose response, selectivity assay for STEP inhibitor project, biochemical (AID 602374); format: functional; conditions: read-out: IC50_Mean
[2] = molecular target: T1, Carboxy-terminal domain RNA polymerase II polypeptide A small phosphatase 1 (Homo sapiens, UniProt Q9GZU7); assay: inhibitors of CTDSP1, concentration-response testing, biochemical assay, absorbance-based, actives from ultra-high-throughput screening (AID 540297); format: functional
T1 sequence (Q9GZU7 whole entry): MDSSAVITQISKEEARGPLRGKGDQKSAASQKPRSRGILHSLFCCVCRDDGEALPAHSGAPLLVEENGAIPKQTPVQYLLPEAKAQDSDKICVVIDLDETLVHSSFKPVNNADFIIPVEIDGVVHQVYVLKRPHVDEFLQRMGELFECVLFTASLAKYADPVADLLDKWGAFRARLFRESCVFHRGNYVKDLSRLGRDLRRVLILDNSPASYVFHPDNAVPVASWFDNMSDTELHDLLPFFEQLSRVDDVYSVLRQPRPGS

[3] = molecular target: Tyrosine-protein phosphatase non-receptor type 5 (Homo sapiens, UniProt P54829); assay: STEP phosphatase inhibitors, confirmation, biochemical, fluorescence intensity, uHTS hits (AID 602372); format: functional; conditions: read-out: IC50_Mean
[4] = molecular target: Tyrosine-protein phosphatase non-receptor type 11 (Homo sapiens, UniProt Q06124); assay: SHP2 phosphatase inhibition, dose response, selectivity assay for STEP inhibitor project, biochemical (AID 602367); format: functional; conditions: read-out: IC50_Mean
[5] = molecular target: ATP-dependent translocase ABCB1 (Homo sapiens, UniProt P08183); assay: ABCB1 efflux pump inhibitor potency, dose response, Jurkat-DNR cells, JC-1, flow cytometry (AID 1689); format: functional
cells [6] = format: functional, cell-based
cells [7] = format: functional, cell-based; remark: listed apart in the source
[8] = molecular target: T2, High affinity choline transporter 1 (Homo sapiens, UniProt Q9GZV3); assay: CHT inhibitors, dose response, cell-based, 5-point CRC, membrane potential dye (AID 504840); format: functional
T2 sequence (Q9GZV3 whole entry): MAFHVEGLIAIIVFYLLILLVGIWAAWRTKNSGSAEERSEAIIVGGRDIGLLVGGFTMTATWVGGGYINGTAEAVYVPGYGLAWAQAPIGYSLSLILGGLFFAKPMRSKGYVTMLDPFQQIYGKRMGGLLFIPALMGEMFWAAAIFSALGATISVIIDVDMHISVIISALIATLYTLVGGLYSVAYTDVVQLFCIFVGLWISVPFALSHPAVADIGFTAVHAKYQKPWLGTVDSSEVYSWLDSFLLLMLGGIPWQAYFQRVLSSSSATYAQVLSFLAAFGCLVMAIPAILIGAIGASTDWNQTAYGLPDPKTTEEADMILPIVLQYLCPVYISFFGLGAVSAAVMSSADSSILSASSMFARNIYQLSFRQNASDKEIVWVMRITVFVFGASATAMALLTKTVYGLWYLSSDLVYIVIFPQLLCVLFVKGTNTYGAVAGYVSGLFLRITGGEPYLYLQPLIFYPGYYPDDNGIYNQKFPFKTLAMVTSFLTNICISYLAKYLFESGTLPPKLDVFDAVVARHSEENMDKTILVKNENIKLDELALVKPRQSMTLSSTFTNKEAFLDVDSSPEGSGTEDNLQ

[9] = molecular target: T2, High affinity choline transporter 1; assay: CHT inhibitors, dose response, cell-based, 10-point CRC, membrane potential dye (AID 588401); format: functional;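 note: membrane potential dye fluorescence of choline-evoked depolarization via CHT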
Streptokinase A = molecular target: T3, Streptokinase A (Streptococcus pyogenes serotype M1, UniProt P10520); assay: S. pyogenes streptokinase expression inhibitors, potency, dose response, plasminogen activation absorbance, OD405 (AID 1914); format: functional, Streptococcus pyogenes M1 GAS;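 note: secreted streptokinase activity via plasminogen activation per viability signal from cell pellet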
T3 sequence (P10520 whole entry): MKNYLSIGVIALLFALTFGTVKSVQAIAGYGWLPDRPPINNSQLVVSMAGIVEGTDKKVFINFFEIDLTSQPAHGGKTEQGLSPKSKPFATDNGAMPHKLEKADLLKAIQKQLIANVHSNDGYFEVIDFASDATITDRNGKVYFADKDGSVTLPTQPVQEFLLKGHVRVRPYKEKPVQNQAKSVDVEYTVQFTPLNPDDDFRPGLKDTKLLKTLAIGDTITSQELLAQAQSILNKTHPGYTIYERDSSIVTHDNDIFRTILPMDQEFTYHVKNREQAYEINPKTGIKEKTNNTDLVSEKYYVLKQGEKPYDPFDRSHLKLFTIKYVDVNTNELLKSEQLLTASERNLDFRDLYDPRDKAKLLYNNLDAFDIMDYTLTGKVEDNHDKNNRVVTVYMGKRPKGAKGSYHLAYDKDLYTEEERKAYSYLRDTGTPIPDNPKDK

[10] = test system: Streptococcus sp. 'group A'; assay: growth inhibition of control SK(-) GAS strain, dose response, counter-screen for streptokinase expression inhibitor project, luminescence, kanamycin, BacTiterGlo, confirmation (AID 1900); format: functional, organism-based
cells [11] = assay: cells
Prothrombin = Prothrombin (Bos taurus, UniProt P00735); assay: thrombin inhibition, dose response, biochemical, fluorescence polarization, uHTS hits (AID 602369); format: functional
Streptococcus = assay: Group A Streptococcus viability loss, dose response, counter-screen for streptokinase expression inhibitor project, luminescence, BacTiterGlo (AID 1915); format: functional, organism-based;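 note: potency for reduction of bacterial viability or growth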
[12] = molecular target: 26S proteasome non-ATPase regulatory subunit 14 (Homo sapiens, UniProt O00487); assay: inhibition of proteasome subunit RPN11 – biochemical, fluorescence polarization, uHTS hits, confirmation (AID 602368); format: functional
[13] = molecular target: DNA (cytosine-5)-methyltransferase 1 (Homo sapiens, UniProt P26358); assay: DNMT1 methyltransferase inhibitors, confirmation, biochemical, fluorescent molecular beacon (AID 602386); format: functional
[14] = molecular target: 72 kDa type IV collagenase (Homo sapiens, UniProt P08253); assay: Dose Response validation of uHTS RPN11 inhibitor hits using a MMP-2 Fluorescence assay.; format: functional
[15] = molecular target: T4, Orexin/Hypocretin receptor type 1 (Homo sapiens, UniProt O43613); assay: (§1) Fluorescence-based cell-based high throughput dose response assay for antagonists of the orexin 1 receptor (OX1R; HCRTR1). [Related pubchem assays (depositor defined):AID434989, AID435008, AID463079, AID485270, AID492963, AID492964, AID492965, AID493232, AID504717, AID504718]; format: functional
T4 sequence (O43613 whole entry): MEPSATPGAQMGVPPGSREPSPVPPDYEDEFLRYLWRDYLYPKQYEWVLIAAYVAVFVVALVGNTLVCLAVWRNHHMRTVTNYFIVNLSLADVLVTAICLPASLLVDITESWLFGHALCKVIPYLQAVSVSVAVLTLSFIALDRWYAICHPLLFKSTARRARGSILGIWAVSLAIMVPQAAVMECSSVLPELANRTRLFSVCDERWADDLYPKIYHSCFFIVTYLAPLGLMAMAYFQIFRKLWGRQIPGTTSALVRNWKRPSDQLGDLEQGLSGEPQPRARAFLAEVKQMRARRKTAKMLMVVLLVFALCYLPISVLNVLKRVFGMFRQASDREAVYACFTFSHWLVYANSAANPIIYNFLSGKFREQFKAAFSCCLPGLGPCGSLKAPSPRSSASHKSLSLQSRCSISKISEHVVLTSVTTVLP

CHO-K1 = assay: (§2) Counterscreen for antagonists of the orexin 1 receptor (OX1R; HCRTR1): Homogeneous time resolved fluorescence (HTRF)-based cell-based dose response assay to identify antagonists of the parental CHO-K1 cell line. [Related pubchem assays (depositor defined):AID434989, AID435008, AID463079, AID485270, AID492963, AID492964, AID492965, AID493232, AID504699, AID504701]; format: functional; conditions: Cricetulus griseus
Orexin receptor type 2 [16] = molecular target: T5, Orexin receptor type 2 (Homo sapiens, UniProt O43614); assay: Counterscreen assay for antagonists of the orexin 1 receptor (OX1R; HCRTR1): Homogeneous Time Resolved Fluorescence (HTRF)-based cell-based dose response assay for antagonists of the orexin 2 receptor (OX2R; HCRTR2), run by assay provider.; format: functional
T5 sequence (O43614 whole entry): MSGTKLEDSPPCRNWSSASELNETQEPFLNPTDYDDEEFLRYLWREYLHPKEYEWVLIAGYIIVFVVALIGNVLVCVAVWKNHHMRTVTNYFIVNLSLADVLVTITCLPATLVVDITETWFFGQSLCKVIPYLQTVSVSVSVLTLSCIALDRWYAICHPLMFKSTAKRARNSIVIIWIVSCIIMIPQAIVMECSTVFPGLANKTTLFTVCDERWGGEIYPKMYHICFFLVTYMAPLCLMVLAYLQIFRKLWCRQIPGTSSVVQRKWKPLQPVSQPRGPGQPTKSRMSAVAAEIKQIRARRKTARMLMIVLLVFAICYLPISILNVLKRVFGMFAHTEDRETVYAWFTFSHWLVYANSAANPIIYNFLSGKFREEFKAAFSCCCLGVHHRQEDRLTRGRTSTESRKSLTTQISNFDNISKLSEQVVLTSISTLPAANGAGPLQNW

[17] = molecular target: T4, Orexin/Hypocretin receptor type 1; assay: as §1, with “Homogeneous Time Resolved Fluorescence (HTRF)-based” for “Fluorescence-based”; format: functional
Orexin receptor type 2 [18] = molecular target: T5, Orexin receptor type 2; assay: Counterscreen assay for antagonists of the orexin 1 receptor (OX1R; HCRTR1): Fluorescence-based cell-based dose response assay for antagonists of the orexin 2 receptor (OX2R; HCRTR2), run by assay provider.; format: functional
[19] = as §2, with “Fluorescence-based” for “Homogeneous time resolved fluorescence (HTRF)-based”, “cell-based high throughput” for “cell-based”, “CHO” for “CHO-K1”; format: functional
[20] = molecular target: T6, Small ubiquitin-related modifier 1 (Homo sapiens, UniProt P63165); assay: inhibitors of SUMO1 peptide binding, dose response, biochemical, fluorescence polarization, uHTS hits (AID 624382); format: functional; conditions: read-out: IC50_Mean
[21] = molecular target: T6, Small ubiquitin-related modifier 1; assay: inhibitors of SUMO1 partner interactions, dose response, biochemical, FRET (AID 624383); format: functional; conditions: read-out: IC50_Mean
[22] = molecular target: Protein disulfide-isomerase (Homo sapiens, UniProt P07237); assay: PDI inhibitors, insulin aggregation turbidity, dose response, biochemical, absorbance, cherry-picked samples (AID 602350); format: functional
[23] = molecular target: Adenosylmethionine-8-amino-7-oxononanoate aminotransferase (Mycobacterium tuberculosis, UniProt P9WQ81); assay: Mycobacterium tuberculosis BioA enzyme inhibitor Measured in Biochemical System Using Plate Reader - 2163-02_Inhibitor_Dose_CherryPick_Activity.; format: functional, Mycobacterium tuberculosis UT205
[24] = molecular target: T7, Mitochondrial peptide methionine sulfoxide reductase (Bos taurus, UniProt P54149); format: functional;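 note: absorbance read-out, biochemical high-throughput dose-response screen for MsrA inhibitors, confirmatory; recombinant bovine MsrA coupled to E. coli TrxB with NADPH and selenocystamine; potency is for inhibitors of MsrA activity on DMSO substrate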
T7 sequence (P54149 whole entry): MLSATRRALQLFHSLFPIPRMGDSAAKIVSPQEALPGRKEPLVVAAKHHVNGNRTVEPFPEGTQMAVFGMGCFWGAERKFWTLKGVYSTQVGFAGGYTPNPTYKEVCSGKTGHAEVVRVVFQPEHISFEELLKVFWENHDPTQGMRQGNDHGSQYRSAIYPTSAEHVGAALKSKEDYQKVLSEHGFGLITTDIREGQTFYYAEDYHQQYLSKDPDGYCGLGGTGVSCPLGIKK

Chain of 72 kDa type IV collagenase (P08253 whole entry): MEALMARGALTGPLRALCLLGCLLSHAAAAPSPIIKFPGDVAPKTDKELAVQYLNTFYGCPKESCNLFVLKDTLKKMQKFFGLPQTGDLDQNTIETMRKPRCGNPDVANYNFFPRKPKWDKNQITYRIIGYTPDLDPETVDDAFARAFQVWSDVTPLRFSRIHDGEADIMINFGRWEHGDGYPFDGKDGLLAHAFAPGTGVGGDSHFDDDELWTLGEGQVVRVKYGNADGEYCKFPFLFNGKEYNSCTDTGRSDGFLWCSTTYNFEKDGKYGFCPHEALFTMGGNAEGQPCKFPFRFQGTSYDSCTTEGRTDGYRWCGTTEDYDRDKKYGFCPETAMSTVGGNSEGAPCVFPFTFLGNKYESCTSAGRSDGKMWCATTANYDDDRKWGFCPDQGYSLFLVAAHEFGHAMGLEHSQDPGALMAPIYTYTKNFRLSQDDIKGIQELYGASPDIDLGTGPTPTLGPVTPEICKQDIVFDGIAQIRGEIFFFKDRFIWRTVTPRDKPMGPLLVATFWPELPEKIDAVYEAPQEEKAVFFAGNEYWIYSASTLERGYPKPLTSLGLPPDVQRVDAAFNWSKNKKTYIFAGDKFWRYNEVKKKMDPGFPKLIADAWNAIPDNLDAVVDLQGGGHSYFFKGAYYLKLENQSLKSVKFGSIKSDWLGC
Chain of 26S proteasome non-ATPase regulatory subunit 14 (O00487 whole entry): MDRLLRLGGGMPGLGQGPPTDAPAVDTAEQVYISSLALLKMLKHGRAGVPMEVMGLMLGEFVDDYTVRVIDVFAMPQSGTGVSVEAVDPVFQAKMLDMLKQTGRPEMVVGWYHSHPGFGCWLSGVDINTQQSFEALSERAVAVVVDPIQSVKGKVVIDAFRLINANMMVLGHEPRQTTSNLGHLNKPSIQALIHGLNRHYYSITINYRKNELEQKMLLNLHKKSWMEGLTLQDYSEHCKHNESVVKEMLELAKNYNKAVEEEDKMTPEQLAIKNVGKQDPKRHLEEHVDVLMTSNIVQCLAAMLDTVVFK
T6 sequence (P63165 whole entry): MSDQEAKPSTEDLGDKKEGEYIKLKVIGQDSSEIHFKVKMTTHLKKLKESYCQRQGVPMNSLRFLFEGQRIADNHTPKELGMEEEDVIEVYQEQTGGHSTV
Chain of Adenosylmethionine-8-amino-7-oxononanoate aminotransferase (P9WQ81 whole entry): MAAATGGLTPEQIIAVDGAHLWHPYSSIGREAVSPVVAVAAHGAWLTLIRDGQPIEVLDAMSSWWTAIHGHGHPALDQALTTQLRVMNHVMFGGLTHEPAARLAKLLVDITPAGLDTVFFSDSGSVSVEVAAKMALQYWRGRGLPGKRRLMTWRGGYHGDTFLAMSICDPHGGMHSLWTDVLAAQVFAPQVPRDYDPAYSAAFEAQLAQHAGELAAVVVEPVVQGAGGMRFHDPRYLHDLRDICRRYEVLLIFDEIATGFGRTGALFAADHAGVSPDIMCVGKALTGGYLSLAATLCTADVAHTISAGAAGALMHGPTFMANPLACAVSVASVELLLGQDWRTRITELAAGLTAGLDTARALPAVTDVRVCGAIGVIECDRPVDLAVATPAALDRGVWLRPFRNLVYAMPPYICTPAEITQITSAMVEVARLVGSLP
Chain of Tyrosine-protein phosphatase non-receptor type 11 (Q06124 whole entry): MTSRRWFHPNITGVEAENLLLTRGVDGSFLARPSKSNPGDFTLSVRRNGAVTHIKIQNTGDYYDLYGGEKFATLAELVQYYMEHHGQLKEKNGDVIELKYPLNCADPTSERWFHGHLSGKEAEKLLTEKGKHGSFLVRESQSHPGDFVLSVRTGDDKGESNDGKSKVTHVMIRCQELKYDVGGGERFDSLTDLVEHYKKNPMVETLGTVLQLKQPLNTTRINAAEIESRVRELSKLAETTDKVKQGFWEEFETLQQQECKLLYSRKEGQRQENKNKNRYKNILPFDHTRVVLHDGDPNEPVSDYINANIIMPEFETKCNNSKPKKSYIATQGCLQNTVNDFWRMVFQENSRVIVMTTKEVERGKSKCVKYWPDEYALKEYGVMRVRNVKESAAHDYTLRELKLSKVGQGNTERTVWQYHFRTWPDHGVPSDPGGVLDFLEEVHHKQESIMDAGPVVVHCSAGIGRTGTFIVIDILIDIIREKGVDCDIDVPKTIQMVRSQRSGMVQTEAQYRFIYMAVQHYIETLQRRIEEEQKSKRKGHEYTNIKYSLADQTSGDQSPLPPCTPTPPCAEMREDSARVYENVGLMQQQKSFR
Chain of DNA (cytosine-5)-methyltransferase 1 (P26358 whole entry): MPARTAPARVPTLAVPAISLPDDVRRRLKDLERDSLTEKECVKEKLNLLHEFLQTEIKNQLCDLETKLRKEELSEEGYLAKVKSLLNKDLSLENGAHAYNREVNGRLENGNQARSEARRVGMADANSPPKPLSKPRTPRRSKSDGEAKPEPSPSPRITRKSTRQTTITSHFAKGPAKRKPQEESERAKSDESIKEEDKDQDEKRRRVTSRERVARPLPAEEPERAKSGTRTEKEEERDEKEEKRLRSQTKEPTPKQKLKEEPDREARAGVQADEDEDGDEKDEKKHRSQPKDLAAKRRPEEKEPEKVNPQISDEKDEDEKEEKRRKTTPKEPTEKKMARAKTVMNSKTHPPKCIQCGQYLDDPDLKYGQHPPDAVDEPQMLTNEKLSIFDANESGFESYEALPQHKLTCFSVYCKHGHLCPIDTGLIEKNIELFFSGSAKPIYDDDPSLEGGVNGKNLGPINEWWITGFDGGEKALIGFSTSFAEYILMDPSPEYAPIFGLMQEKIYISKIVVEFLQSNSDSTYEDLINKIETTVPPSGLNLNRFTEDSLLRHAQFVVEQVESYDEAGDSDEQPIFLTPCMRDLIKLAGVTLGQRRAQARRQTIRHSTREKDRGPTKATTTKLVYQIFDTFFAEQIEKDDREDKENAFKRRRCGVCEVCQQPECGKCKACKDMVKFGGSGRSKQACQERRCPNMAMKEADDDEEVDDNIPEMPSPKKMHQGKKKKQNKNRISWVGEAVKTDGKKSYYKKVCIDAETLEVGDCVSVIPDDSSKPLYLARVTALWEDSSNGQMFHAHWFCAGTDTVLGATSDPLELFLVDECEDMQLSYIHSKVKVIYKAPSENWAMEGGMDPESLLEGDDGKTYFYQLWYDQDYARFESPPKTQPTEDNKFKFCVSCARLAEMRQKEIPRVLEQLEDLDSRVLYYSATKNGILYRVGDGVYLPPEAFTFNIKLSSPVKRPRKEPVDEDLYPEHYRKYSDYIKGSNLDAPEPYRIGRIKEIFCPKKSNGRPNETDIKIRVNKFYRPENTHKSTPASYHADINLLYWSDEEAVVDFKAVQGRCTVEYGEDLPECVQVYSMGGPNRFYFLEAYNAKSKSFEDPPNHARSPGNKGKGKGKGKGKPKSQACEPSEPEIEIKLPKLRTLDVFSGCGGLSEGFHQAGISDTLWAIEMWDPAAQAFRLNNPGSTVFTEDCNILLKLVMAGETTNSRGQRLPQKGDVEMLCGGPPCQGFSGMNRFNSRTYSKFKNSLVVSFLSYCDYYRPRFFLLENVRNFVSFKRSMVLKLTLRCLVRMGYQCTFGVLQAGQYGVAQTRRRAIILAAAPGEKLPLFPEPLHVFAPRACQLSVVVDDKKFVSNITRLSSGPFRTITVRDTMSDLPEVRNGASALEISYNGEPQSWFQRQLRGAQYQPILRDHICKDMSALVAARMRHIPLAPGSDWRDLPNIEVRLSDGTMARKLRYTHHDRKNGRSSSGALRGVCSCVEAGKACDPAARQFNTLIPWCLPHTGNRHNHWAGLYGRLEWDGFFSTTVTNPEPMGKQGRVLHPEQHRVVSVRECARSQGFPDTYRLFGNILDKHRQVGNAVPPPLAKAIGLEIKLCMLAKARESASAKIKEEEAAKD
Chain of Protein disulfide-isomerase (P07237 whole entry): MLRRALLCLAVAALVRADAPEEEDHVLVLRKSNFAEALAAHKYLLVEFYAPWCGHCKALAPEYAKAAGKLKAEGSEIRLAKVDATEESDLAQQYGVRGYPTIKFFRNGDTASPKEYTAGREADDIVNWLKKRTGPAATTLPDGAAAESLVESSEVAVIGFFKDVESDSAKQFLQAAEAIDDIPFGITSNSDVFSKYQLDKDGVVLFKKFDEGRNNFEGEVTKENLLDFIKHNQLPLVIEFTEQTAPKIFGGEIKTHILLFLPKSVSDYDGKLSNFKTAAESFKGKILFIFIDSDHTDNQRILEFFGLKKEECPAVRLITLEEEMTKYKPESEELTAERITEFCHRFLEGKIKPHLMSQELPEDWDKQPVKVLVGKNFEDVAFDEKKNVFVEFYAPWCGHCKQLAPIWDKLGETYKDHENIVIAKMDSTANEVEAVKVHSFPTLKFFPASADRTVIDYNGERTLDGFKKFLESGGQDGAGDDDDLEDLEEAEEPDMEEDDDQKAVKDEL
Chain of Dual specificity protein phosphatase 3 (P51452 whole entry, the tested form may be a part): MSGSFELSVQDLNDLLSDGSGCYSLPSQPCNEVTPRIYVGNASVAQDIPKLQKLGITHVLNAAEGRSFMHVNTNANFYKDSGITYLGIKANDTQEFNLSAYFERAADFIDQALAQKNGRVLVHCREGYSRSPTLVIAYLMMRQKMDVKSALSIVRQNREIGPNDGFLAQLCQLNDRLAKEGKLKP
Chain of Tyrosine-protein phosphatase non-receptor type 5 (P54829 whole entry): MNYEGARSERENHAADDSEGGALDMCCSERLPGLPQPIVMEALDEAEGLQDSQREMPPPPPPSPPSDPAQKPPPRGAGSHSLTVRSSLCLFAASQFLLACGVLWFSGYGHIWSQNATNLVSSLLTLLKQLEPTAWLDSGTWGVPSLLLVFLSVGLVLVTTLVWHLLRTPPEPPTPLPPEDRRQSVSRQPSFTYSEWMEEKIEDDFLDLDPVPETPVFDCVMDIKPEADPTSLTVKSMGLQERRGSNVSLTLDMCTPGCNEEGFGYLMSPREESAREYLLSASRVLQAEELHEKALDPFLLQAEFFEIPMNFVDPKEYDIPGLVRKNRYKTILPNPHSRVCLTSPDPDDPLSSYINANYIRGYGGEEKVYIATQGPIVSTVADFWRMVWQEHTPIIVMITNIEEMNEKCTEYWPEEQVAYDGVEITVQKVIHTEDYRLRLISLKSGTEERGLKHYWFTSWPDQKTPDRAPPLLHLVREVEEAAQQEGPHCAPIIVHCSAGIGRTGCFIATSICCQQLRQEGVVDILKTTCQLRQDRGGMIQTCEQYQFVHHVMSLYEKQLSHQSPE

Structure (SMILES): CCCCCn1c(N)c(-c2nc3ccccc3o2)c2c([N+](=O)[O-])nn(C)c(=O)c21
- IC50 [1]: 0.343 µM (active)
- IC50 [2]: 3.06 µM (active)
- IC50 [3]: > 80 µM (inactive)
- IC50 [4]: 0.738 µM (active)

Structure (SMILES): COc1ccc(/C=N/NC(=O)c2cccnc2)cc1CN1CCN(c2ccc(F)cc2)CC1
- EC50 [5]: 1.01 µM (active)
- EC50 (cells [6]): > 350 µM (not active)
- EC50 (cells [7]): > 350 µM (not active)

Structure (SMILES): CCc1c(C)nc(N)nc1N1N=C1SCCOc1ccccc1
- IC50 [8]: 9.19 µM (active)
- IC50 [9]: 4.47 µM (active)

Structure (SMILES): CCOC(=O)C1=C(C)N=c2s/c(=C/c3ccc(OCC(=O)O)c(OC)c3)c(=O)n2C1c1ccc(Cl)cc1 (centres undefined)
- EC50 (Streptokinase A): > 150 µM (not active)
- EC50 [10]: 9.79 µM (active)
- IC50 (cells [11]): 45.5 µM (active)
- IC50 (Prothrombin): 25.1 µM (active)
- EC50 (Streptococcus): 13.2 µM (active)
- IC50 [12]: 11.7 µM (active)
- IC50 [13]: 10.2 µM (active)
- IC50 [14]: > 100 µM (inactive)

Structure (SMILES): COc1cc(CN2CC(=O)N(c3ccccc3Cl)C2=S)cc(OC)c1OC
- IC50 [15]: 6.26 µM (active)
- IC50 (CHO-K1): > 66.2 µM (inactive)
- IC50 (Orexin receptor type 2 [16]): > 50 µM (inactive)
- IC50 [17]: 1.01 µM (active)
- IC50 (Orexin receptor type 2 [18]): > 88.8 µM (inactive)
- IC50 [19]: 21.4 µM (inactive)

Structure (SMILES): O=c1cc(-c2ccc(O)cc2)oc2c1ccc1ccccc12
- IC50 (Prothrombin): 62.2 µM (active)
- IC50 [20]: > 66.6 µM (inactive)
- IC50 [12]: 47.7 µM (active)
- IC50 [14]: > 100 µM (inactive)
- IC50 [21]: 7.87 µM (active)

Structure (SMILES): COc1ccccc1N1CCN(C(=O)C(=O)N/N=C/c2cccc(O)c2)CC1
- AC50 [22]: 19.5 µM (active)

Structure (SMILES): Fc1ccccc1N=C(S)NNc1ncc(C(F)(F)F)cc1Cl
- IC50 [8]: 10 µM (active)
- IC50 [9]: 3.55 µM (active)

Structure (SMILES): Cc1ccc(-c2csc3nnc(SCC(=O)Nc4nsc(-c5ccccc5)n4)n23)cc1
- IC50 [15]: 5.64 µM (active)
- IC50 (CHO-K1): > 66.2 µM (inactive)
- IC50 (Orexin receptor type 2 [16]): 0.177 µM (active)
- IC50 [17]: 2.53 µM (active)
- IC50 (Orexin receptor type 2 [18]): > 88.8 µM (inactive)
- IC50 [19]: > 49.7 µM (inactive)

Structure (SMILES): CC(=O)Nc1ccc2[nH]c(-c3cccnc3)nc2c1
- AC50 [23]: 4.1 µM (active)

Structure (SMILES): O=C(O)COc1ccc(/C=N/NC(=O)/C(=C/C=C/c2ccccc2)NC(=O)c2ccccc2)cc1
- IC50 [24]: 103 µM (inactive)
